Experiment [1] concerns the target Serine/threonine-protein kinase 10 (Homo sapiens, UniProt O94804).
For experiment [2], the target named is Serine/threonine-protein kinase MRCK alpha (Homo sapiens, UniProt Q5VT25).
Experiment [3] deals with Protein kinase C beta type (Homo sapiens, UniProt P05771).
Experiment [4] concerns the target Serine/threonine-protein kinase B-raf (Homo sapiens, UniProt P15056).
For experiment [5], the target named is T1, Serine/threonine-protein kinase Nek9 (Homo sapiens, UniProt Q8TD19).
T1 sequence (Q8TD19 whole entry): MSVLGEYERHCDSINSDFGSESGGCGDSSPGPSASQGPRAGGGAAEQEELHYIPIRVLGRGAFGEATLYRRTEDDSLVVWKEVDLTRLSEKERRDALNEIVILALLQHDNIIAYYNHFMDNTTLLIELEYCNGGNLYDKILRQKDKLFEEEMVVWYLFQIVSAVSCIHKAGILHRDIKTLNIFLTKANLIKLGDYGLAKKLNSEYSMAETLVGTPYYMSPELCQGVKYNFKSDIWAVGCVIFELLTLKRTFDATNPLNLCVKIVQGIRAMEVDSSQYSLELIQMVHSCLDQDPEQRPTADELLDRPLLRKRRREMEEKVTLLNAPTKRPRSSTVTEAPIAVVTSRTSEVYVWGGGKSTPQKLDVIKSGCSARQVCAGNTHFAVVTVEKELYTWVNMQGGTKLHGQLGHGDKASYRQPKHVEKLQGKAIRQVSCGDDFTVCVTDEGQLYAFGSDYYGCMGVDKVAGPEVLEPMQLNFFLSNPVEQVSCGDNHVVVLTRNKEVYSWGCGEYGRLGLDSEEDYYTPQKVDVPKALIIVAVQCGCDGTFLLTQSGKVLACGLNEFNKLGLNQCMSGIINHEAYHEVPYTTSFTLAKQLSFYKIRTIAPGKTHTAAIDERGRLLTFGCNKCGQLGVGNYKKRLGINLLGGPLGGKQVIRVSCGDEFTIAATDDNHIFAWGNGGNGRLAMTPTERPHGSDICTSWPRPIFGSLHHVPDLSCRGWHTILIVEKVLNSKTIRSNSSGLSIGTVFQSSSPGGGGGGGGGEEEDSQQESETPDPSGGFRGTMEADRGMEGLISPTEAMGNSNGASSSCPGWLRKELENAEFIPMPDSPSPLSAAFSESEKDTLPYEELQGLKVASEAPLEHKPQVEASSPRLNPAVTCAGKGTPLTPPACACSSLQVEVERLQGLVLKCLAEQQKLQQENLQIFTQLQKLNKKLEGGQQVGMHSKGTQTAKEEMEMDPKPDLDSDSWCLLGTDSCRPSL

Experiment [6] addresses Mitogen-activated protein kinase 9 (Homo sapiens, UniProt P45984).
A further experiment deals with T2, TGF-beta receptor type-1 (Homo sapiens, UniProt P36897).
T2 sequence (P36897 whole entry): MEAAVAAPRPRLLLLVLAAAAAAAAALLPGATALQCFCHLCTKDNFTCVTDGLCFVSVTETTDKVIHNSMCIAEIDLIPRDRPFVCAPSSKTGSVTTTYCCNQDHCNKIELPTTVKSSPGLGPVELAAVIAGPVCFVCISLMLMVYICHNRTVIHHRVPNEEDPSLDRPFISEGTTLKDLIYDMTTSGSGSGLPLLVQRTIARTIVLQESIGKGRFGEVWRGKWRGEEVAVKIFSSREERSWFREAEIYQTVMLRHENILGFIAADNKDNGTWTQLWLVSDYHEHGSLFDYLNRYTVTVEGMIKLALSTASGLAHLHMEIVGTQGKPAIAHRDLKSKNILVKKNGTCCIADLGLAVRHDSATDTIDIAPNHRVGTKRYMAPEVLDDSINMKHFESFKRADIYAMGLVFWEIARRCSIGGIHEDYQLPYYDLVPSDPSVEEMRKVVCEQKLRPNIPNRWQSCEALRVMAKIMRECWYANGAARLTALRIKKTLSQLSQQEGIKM

The target in experiment [7] is Receptor-interacting serine/threonine-protein kinase 3 (Homo sapiens, UniProt Q9Y572).
Receptor-interacting serine/threonine-protein kinase 3, sequence (Q9Y572 whole entry): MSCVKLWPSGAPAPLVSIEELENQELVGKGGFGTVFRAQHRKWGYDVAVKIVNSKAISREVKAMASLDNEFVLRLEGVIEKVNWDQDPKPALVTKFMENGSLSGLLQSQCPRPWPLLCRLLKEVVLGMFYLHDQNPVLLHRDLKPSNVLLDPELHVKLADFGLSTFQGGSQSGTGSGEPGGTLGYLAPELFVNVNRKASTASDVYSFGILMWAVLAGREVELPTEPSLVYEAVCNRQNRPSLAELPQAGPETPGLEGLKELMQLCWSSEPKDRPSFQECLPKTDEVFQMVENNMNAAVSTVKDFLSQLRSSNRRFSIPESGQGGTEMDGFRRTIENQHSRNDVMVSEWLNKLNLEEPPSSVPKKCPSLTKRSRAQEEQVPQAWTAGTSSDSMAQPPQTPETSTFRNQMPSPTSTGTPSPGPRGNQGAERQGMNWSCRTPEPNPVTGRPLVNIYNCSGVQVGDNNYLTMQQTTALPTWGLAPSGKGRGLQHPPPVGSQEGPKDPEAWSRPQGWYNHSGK
Experiment [8] has as its target T3, Peroxisomal acyl-coenzyme A oxidase 3 (Homo sapiens, UniProt O15254).
T3 sequence (O15254 whole entry): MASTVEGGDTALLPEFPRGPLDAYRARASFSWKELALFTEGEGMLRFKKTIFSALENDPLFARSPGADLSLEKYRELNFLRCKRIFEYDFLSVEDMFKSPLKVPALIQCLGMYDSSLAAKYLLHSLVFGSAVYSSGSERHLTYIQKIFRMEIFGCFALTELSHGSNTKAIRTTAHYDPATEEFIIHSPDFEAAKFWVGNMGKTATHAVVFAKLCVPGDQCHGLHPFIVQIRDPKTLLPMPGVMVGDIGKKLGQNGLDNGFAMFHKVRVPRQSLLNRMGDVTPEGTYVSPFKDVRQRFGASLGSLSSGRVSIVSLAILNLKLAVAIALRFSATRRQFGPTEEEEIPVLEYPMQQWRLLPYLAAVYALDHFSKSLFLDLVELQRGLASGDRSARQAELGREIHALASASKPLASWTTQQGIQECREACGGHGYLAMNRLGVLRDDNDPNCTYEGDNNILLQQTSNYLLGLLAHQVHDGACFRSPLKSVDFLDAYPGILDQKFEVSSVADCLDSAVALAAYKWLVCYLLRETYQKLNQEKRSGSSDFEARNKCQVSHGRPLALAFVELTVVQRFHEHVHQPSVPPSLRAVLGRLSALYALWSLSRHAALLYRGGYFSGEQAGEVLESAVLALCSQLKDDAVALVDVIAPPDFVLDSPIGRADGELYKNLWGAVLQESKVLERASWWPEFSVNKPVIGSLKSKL

Experiment [9] addresses Mitogen-activated protein kinase kinase kinase 20 (Homo sapiens, UniProt Q9NYL2).
The target in experiment [10] is cAMP-dependent protein kinase catalytic subunit gamma (Homo sapiens, UniProt P22612).
cAMP-dependent protein kinase catalytic subunit gamma, sequence (P22612 whole entry): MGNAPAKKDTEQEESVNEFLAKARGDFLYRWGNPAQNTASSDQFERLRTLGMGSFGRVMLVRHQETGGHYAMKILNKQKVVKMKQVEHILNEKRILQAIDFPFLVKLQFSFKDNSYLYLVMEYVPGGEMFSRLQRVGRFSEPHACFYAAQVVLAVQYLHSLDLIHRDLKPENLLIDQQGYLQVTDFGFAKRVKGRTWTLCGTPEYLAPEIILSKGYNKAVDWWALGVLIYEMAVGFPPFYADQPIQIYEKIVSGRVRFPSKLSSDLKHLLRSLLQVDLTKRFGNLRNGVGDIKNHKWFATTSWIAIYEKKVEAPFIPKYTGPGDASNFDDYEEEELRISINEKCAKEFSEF
In experiment [11] the target is Tyrosine-protein kinase Fer (Homo sapiens, UniProt P16591).
Tyrosine-protein kinase Fer, sequence (P16591 whole entry): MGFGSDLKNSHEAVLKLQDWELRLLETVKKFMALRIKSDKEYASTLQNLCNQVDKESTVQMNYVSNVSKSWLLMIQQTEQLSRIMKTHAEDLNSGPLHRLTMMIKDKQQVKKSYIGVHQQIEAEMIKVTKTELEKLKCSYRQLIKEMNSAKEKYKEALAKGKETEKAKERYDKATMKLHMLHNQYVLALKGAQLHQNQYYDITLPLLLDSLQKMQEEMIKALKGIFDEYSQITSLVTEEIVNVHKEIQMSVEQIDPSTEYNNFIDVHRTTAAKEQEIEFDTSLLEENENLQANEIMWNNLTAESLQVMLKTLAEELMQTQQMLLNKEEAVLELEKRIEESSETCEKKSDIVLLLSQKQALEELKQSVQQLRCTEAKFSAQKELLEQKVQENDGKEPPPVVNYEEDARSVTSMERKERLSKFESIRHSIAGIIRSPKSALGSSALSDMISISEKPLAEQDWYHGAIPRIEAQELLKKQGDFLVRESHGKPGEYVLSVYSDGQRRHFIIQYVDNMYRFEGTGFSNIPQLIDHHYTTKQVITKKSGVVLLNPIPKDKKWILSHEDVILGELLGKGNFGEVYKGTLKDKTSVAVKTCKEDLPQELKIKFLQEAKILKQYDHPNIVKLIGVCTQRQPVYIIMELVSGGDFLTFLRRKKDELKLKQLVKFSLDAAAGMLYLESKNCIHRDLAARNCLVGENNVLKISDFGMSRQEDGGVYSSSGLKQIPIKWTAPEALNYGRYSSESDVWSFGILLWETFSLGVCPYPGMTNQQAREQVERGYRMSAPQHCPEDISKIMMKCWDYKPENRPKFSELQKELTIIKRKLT

From ChEMBL document CHEMBL3991601, “The target landscape of clinical kinase drugs” (Science, 2017) come the findings set out here.

pKd: −log10 of the molar value. The source made the active and inactive calls. For most assays here, no stated cut-off is given here; in the data, actives have a measured Kd and inactives only a lower limit.

Serine/threonine-protein kinase 10, sequence (O94804 whole entry): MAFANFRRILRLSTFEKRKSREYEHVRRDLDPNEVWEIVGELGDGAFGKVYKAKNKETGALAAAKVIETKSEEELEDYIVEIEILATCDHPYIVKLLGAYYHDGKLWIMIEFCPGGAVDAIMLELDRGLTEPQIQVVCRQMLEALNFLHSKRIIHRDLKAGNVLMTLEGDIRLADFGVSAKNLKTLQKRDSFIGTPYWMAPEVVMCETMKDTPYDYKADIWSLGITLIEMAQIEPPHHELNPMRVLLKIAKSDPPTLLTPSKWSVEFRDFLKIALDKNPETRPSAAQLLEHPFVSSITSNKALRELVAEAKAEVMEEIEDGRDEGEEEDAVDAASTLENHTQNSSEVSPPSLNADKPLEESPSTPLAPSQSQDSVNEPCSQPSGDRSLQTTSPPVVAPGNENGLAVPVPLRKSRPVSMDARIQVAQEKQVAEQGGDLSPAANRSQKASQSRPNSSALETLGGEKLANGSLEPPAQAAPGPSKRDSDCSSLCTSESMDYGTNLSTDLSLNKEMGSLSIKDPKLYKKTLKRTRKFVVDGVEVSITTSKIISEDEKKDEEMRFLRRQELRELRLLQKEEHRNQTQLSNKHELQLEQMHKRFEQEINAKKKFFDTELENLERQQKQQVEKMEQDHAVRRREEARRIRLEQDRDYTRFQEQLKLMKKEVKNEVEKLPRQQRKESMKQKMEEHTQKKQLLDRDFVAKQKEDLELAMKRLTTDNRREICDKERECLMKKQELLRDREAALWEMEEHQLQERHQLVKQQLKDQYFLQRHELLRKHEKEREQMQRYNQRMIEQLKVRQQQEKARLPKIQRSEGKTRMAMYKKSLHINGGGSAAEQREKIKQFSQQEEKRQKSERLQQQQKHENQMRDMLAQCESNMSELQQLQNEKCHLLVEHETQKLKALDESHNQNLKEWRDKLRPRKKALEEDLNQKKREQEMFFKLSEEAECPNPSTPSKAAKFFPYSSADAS
Protein kinase C beta type, sequence (P05771 whole entry): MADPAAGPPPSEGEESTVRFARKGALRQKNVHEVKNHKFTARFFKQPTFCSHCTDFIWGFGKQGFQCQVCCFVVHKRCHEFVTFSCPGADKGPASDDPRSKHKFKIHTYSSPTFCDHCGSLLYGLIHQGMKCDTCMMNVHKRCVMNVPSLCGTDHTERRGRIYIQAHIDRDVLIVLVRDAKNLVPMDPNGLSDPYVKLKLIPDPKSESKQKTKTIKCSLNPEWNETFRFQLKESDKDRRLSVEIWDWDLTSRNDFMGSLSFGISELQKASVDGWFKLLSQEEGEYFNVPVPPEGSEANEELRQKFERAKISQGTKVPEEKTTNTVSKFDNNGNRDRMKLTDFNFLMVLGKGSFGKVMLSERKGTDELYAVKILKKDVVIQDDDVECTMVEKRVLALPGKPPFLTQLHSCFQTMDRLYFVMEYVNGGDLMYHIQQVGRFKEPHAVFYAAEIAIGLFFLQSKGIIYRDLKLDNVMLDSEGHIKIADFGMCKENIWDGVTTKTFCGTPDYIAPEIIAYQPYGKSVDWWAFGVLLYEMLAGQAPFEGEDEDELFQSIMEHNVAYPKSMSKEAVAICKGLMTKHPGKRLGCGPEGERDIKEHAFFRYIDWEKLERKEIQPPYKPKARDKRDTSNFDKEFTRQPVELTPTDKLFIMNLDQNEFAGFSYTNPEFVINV
Mitogen-activated protein kinase kinase kinase 20, sequence (Q9NYL2 whole entry): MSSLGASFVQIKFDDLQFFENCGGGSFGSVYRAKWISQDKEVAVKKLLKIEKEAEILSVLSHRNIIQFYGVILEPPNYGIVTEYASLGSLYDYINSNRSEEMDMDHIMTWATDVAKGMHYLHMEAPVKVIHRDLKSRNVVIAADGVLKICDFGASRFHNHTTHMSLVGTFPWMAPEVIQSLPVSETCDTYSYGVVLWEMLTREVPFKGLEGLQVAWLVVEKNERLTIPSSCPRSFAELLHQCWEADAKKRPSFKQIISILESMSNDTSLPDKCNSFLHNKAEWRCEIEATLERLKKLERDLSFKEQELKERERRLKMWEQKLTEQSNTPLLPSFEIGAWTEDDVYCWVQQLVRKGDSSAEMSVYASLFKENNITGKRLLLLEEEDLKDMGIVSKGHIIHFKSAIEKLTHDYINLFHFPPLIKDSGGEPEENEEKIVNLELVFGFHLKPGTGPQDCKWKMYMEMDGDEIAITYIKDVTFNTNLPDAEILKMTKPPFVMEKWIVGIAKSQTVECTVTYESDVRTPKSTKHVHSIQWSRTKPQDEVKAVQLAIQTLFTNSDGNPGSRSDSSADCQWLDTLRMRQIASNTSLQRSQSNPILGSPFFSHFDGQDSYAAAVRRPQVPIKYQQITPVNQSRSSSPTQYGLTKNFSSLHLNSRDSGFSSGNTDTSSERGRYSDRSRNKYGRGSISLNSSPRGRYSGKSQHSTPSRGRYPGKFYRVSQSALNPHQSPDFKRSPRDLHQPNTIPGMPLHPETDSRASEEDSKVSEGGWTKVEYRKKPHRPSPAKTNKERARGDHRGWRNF
Serine/threonine-protein kinase B-raf, sequence (P15056 whole entry): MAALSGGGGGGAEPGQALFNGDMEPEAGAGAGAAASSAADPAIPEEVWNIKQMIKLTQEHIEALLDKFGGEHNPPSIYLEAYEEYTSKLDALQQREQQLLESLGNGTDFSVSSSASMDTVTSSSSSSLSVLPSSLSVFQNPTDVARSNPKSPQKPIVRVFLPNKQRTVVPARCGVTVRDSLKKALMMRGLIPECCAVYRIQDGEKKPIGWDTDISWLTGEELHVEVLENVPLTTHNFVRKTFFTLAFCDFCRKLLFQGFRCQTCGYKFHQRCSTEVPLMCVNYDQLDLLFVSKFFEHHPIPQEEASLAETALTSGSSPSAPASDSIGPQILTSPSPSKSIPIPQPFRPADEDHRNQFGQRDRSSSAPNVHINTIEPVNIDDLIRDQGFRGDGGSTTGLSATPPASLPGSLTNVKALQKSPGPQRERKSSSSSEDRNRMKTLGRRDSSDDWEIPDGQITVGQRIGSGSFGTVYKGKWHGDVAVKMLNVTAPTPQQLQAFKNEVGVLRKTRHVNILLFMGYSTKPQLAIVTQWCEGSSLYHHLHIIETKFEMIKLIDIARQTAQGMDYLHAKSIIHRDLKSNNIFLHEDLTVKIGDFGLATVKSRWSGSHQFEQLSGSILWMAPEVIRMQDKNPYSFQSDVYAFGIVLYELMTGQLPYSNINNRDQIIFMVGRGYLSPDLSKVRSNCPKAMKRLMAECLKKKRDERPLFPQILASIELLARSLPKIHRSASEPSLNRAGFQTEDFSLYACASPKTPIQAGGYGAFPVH

On to `CCc1nc(C(N)=O)c(Nc2ccc(N3CCC(N4CCN(C)CC4)CC3)c(OC)c2)nc1NC1CCOCC1` [GILTERITINIB], for which the Kd (usually the equilibrium constant for the complex coming apart) was 0.149 µM (active) in experiment [1]; > 30 µM (inactive) in experiment [2]; > 30 µM (inactive) in experiment [3]; > 30 µM (inactive) in [4]; > 30 µM (inactive) in [5]; 0.43 µM (active) in experiment [6]. The Kd was > 30 µM (inactive) at TGF-beta receptor type-1; 1.3 µM (active) in experiment [7]; > 30 µM (inactive) in experiment [8]; > 30 µM (inactive) in [9]; > 30 µM (inactive) in experiment [10].

Consider `CCOc1ccn(-c2ccc(F)cc2)c(=O)c1C(=O)Nc1ccc(Oc2ccnc(N)c2Cl)c(F)c1` [BMS-777607], for which the Kd in [11], in [1], in experiment [2], in [3], in experiment [5] and in [6] was > 30 µM (inactive) each time. For the same compound, the Kd (at TGF-beta receptor type-1; in experiment [7]; in experiment [8]; in experiment [9]; in [10]) was > 30 µM (inactive) each time.

In the case of `CNC(=O)c1cc(COc2nnc(Nc3ccc(Cl)cc3)c3ccoc23)ccn1` [TELATINIB], the Kd in experiment [11], in experiment [1], in experiment [3], in experiment [4], in [5] and in experiment [6] was > 30 µM (inactive) throughout. Also, the Kd (on TGF-beta receptor type-1; in experiment [7]; in [8]; in experiment [10]) was > 30 µM (inactive) in each case. Moreover, in experiment [9], the negative logarithm of the Kd (pKd) (usually −log10 of the Kd, conventionally taken in molar units) is 6.32.

`COc1cc2ncnc3c2cc1OCCCCCN(C)Cc1ccc(Br)cc1N3` [JNJ-26483327]: the Kd was > 30 µM (inactive) in experiment [11]; 45.1 µM (active) in [1]; > 30 µM (inactive) in [2]; > 30 µM (inactive) in [3]; > 30 µM (inactive) in experiment [5]; > 30 µM (inactive) in experiment [6]. Besides, the Kd (on TGF-beta receptor type-1; in experiment [7]; in [8]; in experiment [9]; in experiment [10]) was > 30 µM (inactive) each time.

Consider `O=S(=O)(c1cccc2c(O)nccc12)N1CCCNCC1` [HYDROXYFASUDIL], for which the Kd in [11], in experiment [1], in experiment [2], in experiment [3], in experiment [5] and in experiment [6] was > 30 µM (inactive) throughout. In addition, the Kd in experiment [7], in [8], in experiment [9] and in [10] was > 30 µM (inactive) each time.

`C=CC(=O)Nc1cccc(Nc2nc(Nc3ccc(N4CCN(C(C)=O)CC4)cc3OC)ncc2C(F)(F)F)c1` [ROCILETINIB]: the Kd is 1.11 µM (active) in experiment [11]; > 30 µM (inactive) in [1]; > 30 µM (inactive) in [2]; > 30 µM (inactive) in experiment [3]; > 30 µM (inactive) in experiment [5]; > 30 µM (inactive) in experiment [6]. Further, the Kd (at TGF-beta receptor type-1; in experiment [7]; in [8]; in experiment [9]; in experiment [10]) was > 30 µM (inactive) throughout.

As for `COc1cc2ncnc(Nc3ccc(O)cc3)c2cc1OC` [WHI-P131], the Kd in experiment [11] is > 30 µM (inactive); in experiment [1], 2.63 µM (active); in experiment [2], > 30 µM (inactive); in [3], > 30 µM (inactive); in experiment [5], > 30 µM (inactive); in [6], > 30 µM (inactive). For the same compound, the Kd (on TGF-beta receptor type-1; in [7]; in [8]; in experiment [9]; in [10]) was > 30 µM (inactive) each time.

Consider `CC(C)(O)CC(=O)NCCn1ccc2ncnc(Nc3ccc(Oc4cccc(C(F)(F)F)c4)c(Cl)c3)c21` [TAK-285], for which the Kd in experiment [11], in experiment [1], in experiment [2], in [3], in experiment [5] and in [6] was > 30 µM (inactive) each time. In addition, the Kd (on TGF-beta receptor type-1; in experiment [7]; in experiment [8]; in experiment [9]; in experiment [10]) was > 30 µM (inactive) in each case.

With `CC(C)CC(=O)Nc1[nH]nc2c1CN(C(=O)C1CCN(C)CC1)C2(C)C` [PHA-793887], the Kd in experiment [1], in experiment [2], in experiment [3], in [4], in experiment [5] and in experiment [6] was > 30 µM (inactive) throughout. In addition, the Kd (at TGF-beta receptor type-1; in experiment [7]; in experiment [8]; in [9]; in experiment [10]) was > 30 µM (inactive) each time.

Regarding `O=C(NOC[C@H](O)CO)c1ccc(F)c(F)c1Nc1ccc(I)cc1F` [MIRDAMETINIB], the Kd in experiment [11], in [1], in [2], in experiment [3], in experiment [5] and in experiment [6] was > 30 µM (inactive) each time. Also, the Kd (on TGF-beta receptor type-1; in experiment [7]; in experiment [8]; in experiment [9]; in experiment [10]) was > 30 µM (inactive) each time.
